These results are taken from US20240360135A1, “IMIDAZO[1,2-B]PYRIDAZINYL COMPOUNDS AND USES THEREOF” (Sumitomo Pharma Oncology, Inc., priority 2021, published 2024).

In one assay the target is T1, PIM3 (Homo sapiens, UniProt Q86V86).
T1 construct: purchased Millipore 14-738
In words: RBC HotSpot kinase inhibition assay, PIM3. Type of assay: biochemical. How it is done:
(§1) Reagents. Base Reaction Buffer: 20 mM Hepes (pH 7.5), 10 mM MgCl2, 1 mM EGTA, 0.01% Brij35, 0.02 mg/ml BSA, 0.1 mM Na3VO4, 2 mM DTT, 1% DMSO. The following kinases were used in the assay at the indicated concentrations:
(§2) The following substrates were used in combination with the indicated kinases in the assay at the indicated concentration:
(§3) No cofactors were added to any of the reactions.
(§4) • 1. Prepared substrate in freshly prepared Reaction Buffer. • 2. Delivered kinase into the substrate solution and gently mixed. • 3. Delivered test compound in 100% DMSO into the kinase reaction mixture by Acoustic technology (Echo550; nanoliter range), incubated for 20 minutes at room temperature. • 4. Delivered ^33P-ATP into the reaction mixture to initiate the reaction. • 5. Incubated for 2 hours at room temperature. • 6. Detected kinase activity by P81 filter-binding method.
(§5) The results of the RBC HotSpot™ kinase assay are set forth in Table 1, wherein “A” indicates an IC50<10 nM, “B” indicates an IC50 wherein 10 nM≤IC50≤100 nM, and “C” indicates an IC50>100 nM.

In assay [1] the test system is IL-23-induced hyperplasia. The assay is described as follows: IL-23 induced hyperplasia mouse model (psoriasis study). The class given is in vivo, C57BL/6J mice. Conditions: for IL-17A production in ear tissue / IL-22 synthesis in ear tissue: day four; for thickness of the ear epidermal tissue: vs rmIL-23/vehicle; for gross ear thickness: caliper, vs rmIL-23/vehicle control group, BID dosing. The source says: The IL-23-induced hyperplasia model involves the injection of IL-23 into the ear of mice, and is dependent on IL-22 for the development of dermal inflammation and acanthosis. This model is commonly used to investigate pathways involved in psoriasis as well as potential therapies. To test the ability of Compounds 2 and 4 to reduce psoriasis in vivo, an IL-23 induced hyperplasia mouse model was utilized, and analyses of end-points, such as IL-17A and IL-22 levels, and histological measure of epidermal thickness of the ear tissue, were performed. Procedure. Female C57BL/6J mice between 9 to 13 weeks old (purchased from Taconic Biosciences) were weighed on the day prior to study start to establish a baseline. All treatment arms contained ten animals. All animals, except the sham/vehicle group received 0.4 μg of recombinant mouse IL-23 (rmIL-23) in a volume of 20 μL intradermally into one ear. Mice in group 1 (sham/vehicle) received 20 μL PBS. A total of 4 injections per ear was performed while the second ear was not injected nor analyzed. All drugs were prepared in 0.5 percent methylcellulose and 2 percent Tween 80. Starting on day zero of the study (0.5 to 4 hours before rmIL-23 injection), two doses of test compound (100 or 150 milligrams per kilogram of Compound 4, or 50 or 75 milligrams per kilogram of Compound 2) were given. All dosing was at the same time (+/−1 hour) each day with no less than 10 hours and no more than 14 hours between doses. On days zero (before rmIL-23 injection), three, and four (approximately 24 hours after the final hyperplasia induction injection), thickness of ears was measured using a caliper. Measurements were performed blind, by a person unaware of group or previous measurements. On day four, approximately 24 hours after the final hyperplasia induction injection, all mice were euthanized, and treated ears collected and weighed. Half of each ear was weighed and frozen for cytokine analysis (IL-17A and IL-22 concentration was measured using the Luminex technology by ELISA). The other half of each ear were fixed in 10 percent buffered formalin following H&E staining for histological analysis.

Another assay concerns the target T2, PIM2 (Homo sapiens, UniProt Q9P1W9).
T2 construct: purchased Invitrogen PR6347B
The assay is described as follows: RBC HotSpot kinase inhibition assay, PIM2. The class given is biochemical. How it is done:
as §1, §2, §3, §4, §5

The target in another assay is T3, PIM1 (Homo sapiens, UniProt P11309).
T3 construct: purchased Invitrogen PV3503
T3 sequence (P11309 whole entry): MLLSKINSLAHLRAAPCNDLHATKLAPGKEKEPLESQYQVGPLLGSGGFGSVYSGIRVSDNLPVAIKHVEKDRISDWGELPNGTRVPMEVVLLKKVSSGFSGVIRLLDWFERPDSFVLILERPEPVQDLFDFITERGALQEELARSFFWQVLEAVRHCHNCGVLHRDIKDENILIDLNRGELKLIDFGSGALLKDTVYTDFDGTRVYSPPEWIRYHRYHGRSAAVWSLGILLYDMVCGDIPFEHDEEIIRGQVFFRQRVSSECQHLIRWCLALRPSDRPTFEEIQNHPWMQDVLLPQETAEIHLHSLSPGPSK
In words: RBC HotSpot kinase inhibition assay, PIM1. Type of assay: biochemical. How it is done: as §1, §2, §3, §4, §5

In a further assay the test system is Caspase 3/7. The assay is described as follows: Apoptosis assay (Caspase 3/7) in A549 cells. Type of assay: cell-based. Conditions: Homo sapiens, 24 hours, read-out: EC50, Caspase 3/7 activation. The source says: Overview. PIM1 is a kinase, and has many downstream targets including Bad (BCL2 associated agonist of cell death), a member of the BCL-2 family. BCL-2 family members are regulators of the programmed cell death pathways. Proapoptotic activity of Bad is regulated through its phosphorylation. Dephosphorylated Bad forms a heterodimer with Bcl-2 and Bcl-xL, inactivating them and thus allowing Bax/Bak-triggered apoptosis. Bad phosphorylation is thus anti-apoptotic, and Bad dephosphorylation is pro-apoptotic. PIM inhibition is expected to result in a decrease of phosphorylated Bad, and an increase in apoptosis.
Procedure. Three thousand five hundred A549 cells (ATCC, CCL-185) were added per well of a 384-well plate in a total volume of twenty-five microliters and cultured in RPMI medium (no phenol red)+plus ten percent fetal calf serum. The next day, DMSO or test compound was added (90 nanoliters of test compound/DMSO per well) at 7 different concentrations starting at 10 micromolar (3.3-fold dilution). After 24 hours at 37° C. with 5% CO2, apoptosis was measured by using the Caspase 3/7 assay system (Promega, G8090). […] The cells were then incubated at room temperature for 30 minutes and luminescence was measured for each sample using a plate reading luminometer (Envision, PerkinElmer).

Setting [2] is: 75 milligrams per kilogram twice a day.
[3] abbreviates: 100 milligrams per kilogram twice a day.
[4] abbreviates: 150 milligrams per kilogram twice a day.

Where only a bound is given, the exact number is not on record here.

T2 sequence (Q9P1W9 whole entry): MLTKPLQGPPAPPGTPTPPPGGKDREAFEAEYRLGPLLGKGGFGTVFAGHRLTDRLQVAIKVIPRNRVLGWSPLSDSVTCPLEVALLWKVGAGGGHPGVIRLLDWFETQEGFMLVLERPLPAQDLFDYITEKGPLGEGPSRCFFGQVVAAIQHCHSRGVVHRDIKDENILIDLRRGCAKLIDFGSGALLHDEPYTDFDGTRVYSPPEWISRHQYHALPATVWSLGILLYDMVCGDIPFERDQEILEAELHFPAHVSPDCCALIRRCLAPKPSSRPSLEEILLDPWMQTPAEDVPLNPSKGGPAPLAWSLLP

As a reminder, the IC50 is the concentration that gives 50% inhibition. For `Cc1cc(-c2cnc3ccc(NC45CCC(C(C)(C)O)(CC4)CC5)nn23)n[nH]1` [Compound 2, 2-(4-((3-(5-methyl-1H-pyrazol-3-yl)imidazo[1,2-b]pyridazin-6-yl)amino)bicyclo[2.2.2]octan-1-yl)propan-2-ol], on PIM3, the IC50 is less than 10 nM. For the same compound, in assay [1] (setting [2]), the “IL-17A production in ear tissue” value is “strongly inhibited”, the “IL-22 synthesis in ear tissue” value was “reduced” and the “thickness of the ear epidermal tissue” value is “significantly reduced”. Also, the gross ear thickness entry in assay [1] is listed as “significantly reduced”. Moreover, the IC50 at PIM2 was more than 100 nM. Besides, the IC50 at PIM1 was less than 10 nM. Moreover, the EC50 with Caspase 3/7 was in the range of 1000 to 20000 nM.
With `CC(C)(O)C12CCC(Nc3ccc4ncc(-c5cc(C6CC6)[nH]n5)n4n3)(CC1)CC2` [Compound 4, 2-(4-((3-(5-cyclopropyl-1H-pyrazol-3-yl)imidazo[1,2-b]pyridazin-6-yl)amino)bicyclo[2.2.2]octan-1-yl)propan-2-ol], the IC50 on PIM3 was less than 10 nM. Besides, in assay [1] (setting [3]), the “IL-17A production in ear tissue” value was “strongly inhibited”, the “IL-22 synthesis in ear tissue” value was “reduced” and the “thickness of the ear epidermal tissue” value was “significantly reduced”. Further, in assay [1] (setting [4]), the “gross ear thickness, comparison between groups” value was “greater effect”; the “IL-17A production in ear tissue” value is on record as “strongly inhibited”; the “IL-22 synthesis in ear tissue” value is reported as “reduced”; the “thickness of the ear epidermal tissue” value is listed as “significantly reduced”. Besides, the gross ear thickness entry in assay [1] is reported as “significantly reduced”. Also, at PIM2, the IC50 was in the range of 10 to 100 nM. At PIM1, the IC50 was less than 10 nM. Besides, the EC50 in the assay with Caspase 3/7 lay in the range of 1000 to 20000 nM.
